Experimental data as given in patent publication US20250268877A1 (BIOGEN MA INC., priority 2020, published 2025).
In brackets after ≈: the same amount, converted by molar mass.

Experiments:
MDR1 = MDR1 (Homo sapiens (Human), UniProt P08183); test: MDR1-MDCK assay (apparent permeability, efflux ratio); assay type: in vitro ADME; conditions: human, MDCK-MDR1, 1 μM, read-out: MDR1-MDCK_Efflux Ratio
[1] = Kinetic solubility assay (CLND), potassium phosphate buffer pH 6.8; assay type: physicochemical; conditions: potassium phosphate buffer, pH 6.8, aqueous buffer, kinetic from dmso stock, pH 6.8, 2% DMSO, 24 hours at ambient temperature
Description: • Inject filtrates into the nitrogen detector for quantification on Analiza's Automated Discovery Workstation (ADW). • Solubility results generated in μg/mL

IRAK4 = IRAK4 (Homo sapiens (Human), UniProt Q9NWZ3); test: IRAK4 2-hour 1 mM ATP Biochemical Assay (MesoScale Detection format); conditions: 100 pM IRAK4, read-out: IRAK4 IC50
Sequence of IRAK4 (Q9NWZ3 whole entry): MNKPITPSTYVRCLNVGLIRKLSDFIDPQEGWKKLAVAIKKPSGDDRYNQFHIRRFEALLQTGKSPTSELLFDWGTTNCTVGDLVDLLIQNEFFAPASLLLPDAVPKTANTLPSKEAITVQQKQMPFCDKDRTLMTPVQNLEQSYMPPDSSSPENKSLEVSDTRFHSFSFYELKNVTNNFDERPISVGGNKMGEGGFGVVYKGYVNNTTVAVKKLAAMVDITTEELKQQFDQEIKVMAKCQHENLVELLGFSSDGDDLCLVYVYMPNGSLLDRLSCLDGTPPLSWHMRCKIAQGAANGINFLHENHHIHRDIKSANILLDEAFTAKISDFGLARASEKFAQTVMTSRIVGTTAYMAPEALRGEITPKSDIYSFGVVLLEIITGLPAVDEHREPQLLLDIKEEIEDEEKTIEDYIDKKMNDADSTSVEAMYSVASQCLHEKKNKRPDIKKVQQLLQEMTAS
Protocol: The 2-hour 1 mM ATP Biochemical Assay employed a MesoScale Detection (MSD) format.
The activity was quenched with 11 μl of 70 mM EDTA, pH 8.
To detect the phosphorylated biotinylated peptide substrate, 30 μl of the quenched reaction mixture was added to equivalent wells of a 384 well streptavidin coated MesoScale plate (Meso Scale Discovery #L21SA-1). After a 1 hour incubation of the plate for 1 hour at room temperature with gentle mixing, the plate wells were washed 3 times with 50 mM Tris, pH 7.5, 150 mM NaCl, 0.02% Tween-20.
A 25 μl volume of 1:500 anti-P-Threonine Rabbit polyclonal Antibody plus 1:500 Goat-anti-Rabbit Sulfo Tag Antibody (Meso Scale Discovery R^32AB-1) in 50 mM Tris, pH 7.5, 150 mM NaCl, 0.02% Tween-20 plus 2% BSA was then added to each well. After a 1-hour incubation of the plate for 1 hour at room temperature with gentle mixing, the plate wells were washed, 3 times with 50 mM Tris, pH 7.5, 150 mM NaCl, 0.02% Tween-20.

Sequence of MDR1 (P08183 whole entry): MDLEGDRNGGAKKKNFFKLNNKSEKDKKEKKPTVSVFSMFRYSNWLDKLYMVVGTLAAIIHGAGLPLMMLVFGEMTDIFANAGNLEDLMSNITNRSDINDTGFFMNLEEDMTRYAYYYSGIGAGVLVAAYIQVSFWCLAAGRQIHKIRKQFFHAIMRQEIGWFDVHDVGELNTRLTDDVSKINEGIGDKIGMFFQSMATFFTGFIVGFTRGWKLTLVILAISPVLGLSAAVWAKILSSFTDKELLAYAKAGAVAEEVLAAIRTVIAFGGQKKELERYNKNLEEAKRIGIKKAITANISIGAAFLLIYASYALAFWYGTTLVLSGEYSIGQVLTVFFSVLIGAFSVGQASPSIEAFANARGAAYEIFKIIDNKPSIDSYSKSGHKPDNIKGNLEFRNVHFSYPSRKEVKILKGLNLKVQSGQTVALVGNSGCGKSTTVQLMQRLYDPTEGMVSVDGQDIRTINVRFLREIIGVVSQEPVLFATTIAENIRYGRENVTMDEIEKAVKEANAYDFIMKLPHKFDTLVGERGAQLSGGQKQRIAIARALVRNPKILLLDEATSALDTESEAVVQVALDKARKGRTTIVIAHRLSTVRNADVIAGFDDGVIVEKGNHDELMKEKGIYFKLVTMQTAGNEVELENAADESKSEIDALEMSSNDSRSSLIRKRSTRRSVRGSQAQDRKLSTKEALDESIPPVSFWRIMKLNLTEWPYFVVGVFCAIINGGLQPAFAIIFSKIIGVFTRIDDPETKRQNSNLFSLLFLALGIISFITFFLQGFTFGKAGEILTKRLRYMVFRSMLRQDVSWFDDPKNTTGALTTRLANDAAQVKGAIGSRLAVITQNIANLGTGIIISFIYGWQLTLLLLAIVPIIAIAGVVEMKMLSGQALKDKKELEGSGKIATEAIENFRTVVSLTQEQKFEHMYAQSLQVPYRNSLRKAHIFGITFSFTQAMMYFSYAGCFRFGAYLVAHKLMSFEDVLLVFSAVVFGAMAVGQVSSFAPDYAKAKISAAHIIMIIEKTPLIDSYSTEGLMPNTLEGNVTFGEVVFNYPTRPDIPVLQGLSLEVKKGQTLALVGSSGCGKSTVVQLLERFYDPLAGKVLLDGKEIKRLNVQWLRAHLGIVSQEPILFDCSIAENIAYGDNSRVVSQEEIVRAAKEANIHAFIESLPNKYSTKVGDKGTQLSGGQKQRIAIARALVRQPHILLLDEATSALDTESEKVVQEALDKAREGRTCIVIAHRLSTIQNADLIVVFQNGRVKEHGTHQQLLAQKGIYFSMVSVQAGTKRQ

Compound | efflux ratio at 120 min, 1 μM (MDR1) | solubility at 24 h [1] [µg/mL] | IC50 (IRAK4) [nM]
CC(C)Oc1nc2nn(C34COC(C)(C3)C4)cc2cc1C(=O)Nc1cccn([C@@H]2C[C@@H]2F)c1=O (racemic) [Example 32, (rac)-Cis-N-(1-(2-fluorocyclopropyl)-2-oxo-1,2-dihydropyridin-3-yl)-6-isopropoxy-2-(1-methyl-2-oxabicyclo[2.1.1]hexan-4-yl)-2H-pyrazolo[3,4-b]pyridine-5-carboxamide] | 4.18 | 16 (≈ 34.2 µM) | –
CC(C)Oc1cc2nn(C34COC(C)(C3)C4)cc2cc1C(=O)Nc1cccn([C@@H]2C[C@@H]2F)c1=O (racemic) [Example 35, (racemic)-Cis-N-(1-(2-fluorocyclopropyl)-2-oxo-1,2-dihydropyridin-3-yl)-6-isopropoxy-2-(1-methyl-2-oxabicyclo[2.1.1]hexan-4-yl)-2H-indazole-5-carboxamide] | – | 65.7 (≈ 141 µM) | –
CC(C)Oc1cc2nn(C34COC(C)(C3)C4)cc2cc1C(=O)Nc1cccn([C@@H]2C[C@H]2C)c1=O (racemic) [Example 39, Racemic-(Trans)-6-isopropoxy-2-(1-methyl-2-oxabicyclo[2.1.1]hexan-4-yl)-N-(1-(2-methylcyclopropyl)-2-oxo-1,2-dihydropyridin-3-yl)-2H-indazole-5-carboxamide] | – | 2.3 (≈ 4.97 µM) | –
CC(C)Oc1nc2nn(C34COC(C)(C3)C4)cc2cc1C(=O)Nc1cccn(C2C[C@@H]2F)c1=O (mixture of isomers) [Example 42, racemic-(Trans)-N-(1-(2-fluorocyclopropyl)-2-oxo-1,2-dihydropyridin-3-yl)-6-isopropoxy-2-(1-methyl-2-oxabicyclo[2.1.1]hexan-4-yl)-2H-pyrazolo[3,4-b]pyridine-5-carboxamide] | 2.5 | 2.8 (≈ 5.99 µM) | –
CC(C)Oc1nc2nn(C34COC(C)(C3)C4)cc2cc1C(=O)Nc1cccn([C@@H]2C[C@@H]2F)c1=O (single isomer, unassigned) [Example 33] | 4.15 | 6.6 (≈ 14.1 µM) | –
CC(C)Oc1cc2nn(C34COC(C)(C3)C4)cc2cc1C(=O)Nc1cccn([C@@H]2C[C@@H]2F)c1=O (single isomer, unassigned) [Example 36] | 2.96 | 69.5 (≈ 149 µM) | –
CC(C)Oc1cc2nn(C34COC(C)(C3)C4)cc2cc1C(=O)Nc1cccn([C@H]2C[C@H]2F)c1=O (single isomer, unassigned) [Example 37] | 2.71 | 56 (≈ 120 µM) | –
CC(C)Oc1nc2nn(C34COC(C)(C3)C4)cc2cc1C(=O)Nc1cccn([C@H]2C[C@@H]2F)c1=O (single isomer, unassigned) [Example 43] | 1.82 | 1.8 (≈ 3.85 µM) | –
CC(C)Oc1nc2nn(C34COC(C)(C3)C4)cc2cc1C(=O)Nc1cccn([C@@H]2C[C@H]2F)c1=O (single isomer, unassigned) [Example 44] | 1.84 | 1.9 (≈ 4.06 µM) | –
CC(C)Oc1cc2nn(C34COC(C)(C3)C4)cc2cc1C(=O)Nc1cccn([C@@H]2C[C@H]2F)c1=O (single isomer, unassigned) [Example 54] | 1.77 | 66.5 (≈ 143 µM) | –
CC(C)Oc1cc2nn(C34COC(CF)(C3)C4)cc2cc1C(=O)Nc1cccn([C@H]2C[C@@H]2C)c1=O (single isomer, unassigned) [Example 70] | 1.59 | – | 2.3
CC(C)Oc1nc2nn(C34COC(C)(C3)C4)cc2cc1C(=O)Nc1cccn(C2(C)CC2)c1=O [Example 18, 6-Isopropoxy-2-(1-methyl-2-oxabicyclo[2.1.1]hexan-4-yl)-N-(1-(1-methylcyclopropyl)-2-oxo-1,2-dihydropyridin-3-yl)-2H-pyrazolo[3,4-b]pyridine-5-carboxamide] | 1.31 | – | 4.3
CC(C)Oc1nc2nn(C34COC(CF)(C3)C4)cc2cc1C(=O)Nc1cccn(C2(C)CC2)c1=O [Example 19, 2-(1-(Fluoromethyl)-2-oxabicyclo[2.1.1]hexan-4-yl)-6-isopropoxy-N-(1-(1-methylcyclopropyl)-2-oxo-1,2-dihydropyridin-3-yl)-2H-pyrazolo[3,4-b]pyridine-5-carboxamide] | 1.91 | – | 6.6
CC[C@@H](C)Oc1nc2nn(C34COC(CF)(C3)C4)cc2cc1C(=O)Nc1cccn(C2CC2)c1=O [Example 20, (R)-6-(sec-butoxy)-N-(1-cyclopropyl-2-oxo-1,2-dihydropyridin-3-yl)-2-(1-(fluoromethyl)-2-oxabicyclo[2.1.1]hexan-4-yl)-2H-pyrazolo[3,4-b]pyridine-5-carboxamide] | 2.26 | – | 4
CC[C@H](C)Oc1nc2nn(C34COC(CF)(C3)C4)cc2cc1C(=O)Nc1cccn(C2CC2)c1=O [Example 21, (S)-6-(sec-butoxy)-N-(1-cyclopropyl-2-oxo-1,2-dihydropyridin-3-yl)-2-(1-(fluoromethyl)-2-oxabicyclo[2.1.1]hexan-4-yl)-2H-pyrazolo[3,4-b]pyridine-5-carboxamide] | 3.33 | – | 1.1
CC(C)Oc1nc2nn(C34COC(C)(C3)C4)cc2cc1C(=O)Nc1cccn([C@@H]2CC2(C)C)c1=O [Example 22, (R)—N-(1-(2,2-dimethylcyclopropyl)-2-oxo-1,2-dihydropyridin-3-yl)-6-isopropoxy-2-(1-methyl-2-oxabicyclo[2.1.1]hexan-4-yl)-2H-pyrazolo[3,4-b]pyridine-5-carboxamide] | 1.03 | – | 27
CC(C)Oc1nc2nn(C34COC(C)(C3)C4)cc2cc1C(=O)Nc1cccn([C@H]2CC2(C)C)c1=O [Example 23, (S)—N-(1-(2,2-dimethylcyclopropyl)-2-oxo-1,2-dihydropyridin-3-yl)-6-isopropoxy-2-(1-methyl-2-oxabicyclo[2.1.1]hexan-4-yl)-2H-pyrazolo[3,4-b]pyridine-5-carboxamide] | 1.15 | – | 1.3
CC(C)Oc1cc2nn(C34COC(CF)(C3)C4)cc2cc1C(=O)Nc1cccn([C@@H]2C[C@@H]2F)c1=O [Example 53, N-(1-((1R,2S)-2-fluorocyclopropyl)-2-oxo-1,2-dihydropyridin-3-yl)-2-(1-(fluoromethyl)-2-oxabicyclo[2.1.1]hexan-4-yl)-6-isopropoxy-2H-indazole-5-carboxamide] | 6.21 | – | 9
COCC12CC(n3cc4cc(C(=O)Nc5cccn([C@@H]6C[C@H]6F)c5=O)c(OC5CCC5)cc4n3)(CO1)C2 [Example 57, 6-cyclobutoxy-N-(1-((1R,2R)-2-fluorocyclopropyl)-2-oxo-1,2-dihydropyridin-3-yl)-2-(1-(methoxymethyl)-2-oxabicyclo[2.1.1]hexan-4-yl)-2H-indazole-5-carboxamide] | 2.39 | – | 1.7
COCC12CC(n3cc4cc(C(=O)Nc5cccn([C@@H]6C[C@@H]6C)c5=O)c(OC(C)C)nc4n3)(CO1)C2 [Example 72, 6-isopropoxy-2-(1-(methoxymethyl)-2-oxabicyclo[2.1.1]hexan-4-yl)-N-(1-((1R,2S)-2-methylcyclopropyl)-2-oxo-1,2-dihydropyridin-3-yl)-2H-pyrazolo[3,4-b]pyridine-5-carboxamide] | 2.69 | – | 27.4
COCC12CC(n3cc4cc(C(=O)Nc5cccn([C@@H]6C[C@@H]6C)c5=O)c(OC(C)C)cc4n3)(CO1)C2 [Example 73, 6-isopropoxy-2-(1-(methoxymethyl)-2-oxabicyclo[2.1.1]hexan-4-yl)-N-(1-((1R,2S)-2-methylcyclopropyl)-2-oxo-1,2-dihydropyridin-3-yl)-2H-indazole-5-carboxamide] | 1.51 | – | 43.2
CC(C)Oc1cc2nn(C34COC(C3)C4)cc2cc1C(=O)Nc1cccn([C@@H]2C[C@@H]2C)c1=O [Example 74, 2-(2-oxabicyclo[2.1.1]hexan-4-yl)-6-isopropoxy-N-(1-((1R,2S)-2-methylcyclopropyl)-2-oxo-1,2-dihydropyridin-3-yl)-2H-indazole-5-carboxamide] | 2.07 | – | 26.5
CC(C)Oc1nc2nn(C34COC(C3)C4)cc2cc1C(=O)Nc1cccn([C@@H]2C[C@@H]2C)c1=O [Example 75, 2-(2-oxabicyclo[2.1.1]hexan-4-yl)-6-isopropoxy-N-(1-((1R,2S)-2-methylcyclopropyl)-2-oxo-1,2-dihydropyridin-3-yl)-2H-pyrazolo[3,4-b]pyridine-5-carboxamide] | 3.63 | – | 36.9
CC(C)Oc1nc2nn(C34COC(C)(C3)C4)cc2cc1C(=O)Nc1cccn([C@@H]2C[C@@H]2F)c1=O [Example 83, N-(1-((1R,2S)-2-fluorocyclopropyl)-2-oxo-1,2-dihydropyridin-3-yl)-6-isopropoxy-2-(1-methyl-2-oxabicyclo[2.1.1]hexan-4-yl)-2H-pyrazolo[3,4-b]pyridine-5-carboxamide] | 4.48 | 16.7 (≈ 35.7 µM) | –
CC(C)Oc1nc2nn(C34COC(C)(C3)C4)cc2cc1C(=O)Nc1cccn([C@H]2C[C@H]2F)c1=O [Example 84, N-(1-((1S,2R)-2-fluorocyclopropyl)-2-oxo-1,2-dihydropyridin-3-yl)-6-isopropoxy-2-(1-methyl-2-oxabicyclo[2.1.1]hexan-4-yl)-2H-pyrazolo[3,4-b]pyridine-5-carboxamide] | 3.06 | 15.8 (≈ 33.8 µM) | –
CC(C)Oc1cc2nn(C34COC(C)(C3)C4)cc2cc1C(=O)Nc1cccn([C@H]2C[C@H]2C)c1=O [Example 96, 6-isopropoxy-2-(1-methyl-2-oxabicyclo[2.1.1]hexan-4-yl)-N-(1-((1S,2R)-2-methylcyclopropyl)-2-oxo-1,2-dihydropyridin-3-yl)-2H-indazole-5-carboxamide] | – | 13.6 (≈ 29.4 µM) | –
